“Also recorded” adds a separate entry of the source.
Key:
male Sprague-Dawley rats [1] = assay: Bone mineral apposition rate in rats, second set of experiments (NAP-2V subsequences); format: in vivo, rat; details: for Group arithmetic mean of bone apposition rate: about 25 nmol injected in right thigh, male Sprague-Dawley rats, N=3-4, control 1.08
Protocol: In a second set of experiments, twenty-four male Sprague-Dawley rats (Charles River Laboratory) were divided into six groups of four. Each of the first group, the control group, was injected in the right thigh with 200 μl of 0.1% acetic acid solution. The rats of the other groups were each injected in the right thigh with about 200 μl of a 0.1% acetic acid solution containing about 25 nmol of a chemically synthesized polypeptide as follows:
Immediately after injection of the polypeptide (control) solution, each rat was injected in the right gluteus maximus with 200 μl of a 1 M tetracycline hydrochloride (Sigma Chemical) solution. This dosage of tetracycline is about 16 mg per kg of animal body weight.
About 48 hours later, each rat was injected in the left gluteus maximus with the same dosage of tetracycline. Twenty-four hours later, the rats were sacrificed by CO2 narcosis and the right femur taken for bone mineral apposition rate determination. One rat died during the course of the experiments.
Immediately after dissection, a bone sample was fixed in 10% formaldehyde solution at pH 7.4. Later the same day, a 1:1 H2O-acetone solution was exchanged for the formaldehyde solution. This was exchanged twice the following day with acetone. This was exchanged the following day by a 1:1 acetone-Spurr's medium solution, which was exchanged later the same day with Spurr's medium. The following day each sample was embedded in a fresh change of Spurr's medium and cured at 60° C. for 24 hours, followed by curing at 80° C. for 24 hours.
Each cured block was cut into 400 μm thick sections using a Leitz saw microtome equipped with a diamond charged blade. The relatively thick sections were ground down between two ground glass plates pre-roughened with carborundum powder to a final thickness of about 10 μm, water being used as the grinding lubricant. The thin sections were dried and mounted unstained in Permount (Fisher).
Measurements were made using a Leitz scanning light microscope photometer MPV-CD magnifying the sections 16×, as described in international patent application No. PCT/CA94/00144.

[2] = system: female Sprague-Dawley rats; assay: Bone mineral apposition rate in rats, third set of experiments (protected polypeptides); format: in vivo, rat; details: 100 nmoles; for Group arithmetic mean of bone apposition rate: female Sprague-Dawley rats, N=3, control 1.256; for Bone stimulatory activity (in words): rats
Protocol: The polypeptide having the sequence identified as SEQ ID NO:12 has two sites susceptible to cleavage by the peptidase plasmin, between the lysine-threonine and the lysine-asparagine residues, respectively. In a third set of experiments, nine female Sprague-Dawley rats (average weight, about 300 gm) were divided into three groups of three. Each of the first group, the control group, was injected with 400 μl of buffer solution, 50 mM sodium acetate adjusted to pH 4.5 followed immediately by 200 μl of a 1M tetracycline hydrochloride solution. The rats of the second group were each injected with 400 μl of buffer containing 100 nmoles of a chemically synthesized polypeptide having the sequence identified as SEQ ID NO:17 followed immediately by 200 μl of a 1 M tetracycline hydrochloride solution. The rats of the third group were each injected with 400 μl of buffer containing 100 nmoles of a chemically synthesized polypeptide having the sequence identified as SEQ ID NO:18 followed immediately by 200 μl of a 1M tetracycline hydrochloride solution.
After about 48 hours, a second dose of tetracycline hydrochloride was administered to each rat. After about another 24 hours, rats were sacrificed by carbon dioxide narcosis.
The right femur of each animal was taken and treated, as described above, and measurements made as described above.

[3] = system: female Sprague-Dawley rats; assay: Dose dependence of bone mineral apposition rate in rats, fourth set of experiments; format: in vivo, rat; details: N=4, control 1.320
Protocol: In a fourth set of experiments, dose dependence of the measured bone mineral apposition rate on the amount of polypeptide having SEQ ID NO:18 was evaluated. Twenty-eight female Sprague-Dawley rats (average weight, about 300 gm) were divided into seven groups of four. The rats were treated as described in the previous set of experiments except that the amount of test polypeptide varied as follows: 25, 50, 100, 200, 400 and 800 nmoles.

Saos-2 = Saos-2 osteoblastic osteosarcoma cell line; U.S. Pat. No. 5,304,542; cited from earlier work
G-292 = G-292 osteoblastic osteosarcoma cell line; U.S. Pat. No. 5,304,542; cited from earlier work
male Sprague-Dawley rats [4] = assay: Bone mineral apposition rate in rats, first experiments (NAP-2, NAP-2V); format: in vivo, rat; details: 25 nmol; for Bone stimulatory effect (in words): rats; for Group arithmetic mean of bone apposition rate: subcutaneous injection, male Sprague-Dawley rats, N=5, right femur lower metaphysis, control 0.99
Protocol: Experiments were conducted simultaneously on three groups of male Sprague-Dawley rats, there being five rats in each group. Each rat weighed between 250 and 350 g. Each rat of the first group was given, by subcutaneous injection into the left gluteus maximus region, 200 μl of a 1% aqueous acetic acid solution containing 25 nmol (about 191 μg) of NAP-2 (SEQ ID NO:1). Each rat of the second group was similarly given 200 μl of a 1% aqueous acetic acid solution containing 25 nmol (about 207 μg) of NAP-2V (SEQ ID NO:2). Each rat of the third group, the control group, was similarly given 200 μl of 1% acetic acid solution.
Immediately following administration of the test solution, 300 μl of an aqueous solution of tetracycline hydrochloride was administered intramuscularly into the right gluteus maximus, the concentration of tetracycline being sufficient to obtain a dosage of about 24 mg/kg of rat body weight. A second dose of tetracycline hydrochloride solution was administered about 48 hours after the first dose. The rats were sacrificed about 24 hours after administration of the second dose of tetracycline.
Sections of the lower metaphysis of the right femur were used for bone measuring the bone mineral apposition rate. Processing of the bone material for measurement has been described previously. See, for example, international patent application No. PCT/CA 94/00144 published under No. WO 94/20615 on Sep. 15, 1994.

Molecule: NAP-2V-(1-26) (DSDLYAELRCMCIKTTSGIHPKNIQS; OTHER INFORMATION: Description of Artificial Sequence: Chemically synthesized polypeptide) [SEQ ID NO: 11]
- Group arithmetic mean of bone apposition rate (male Sprague-Dawley rats [1]): 1.47 μm per day
- Effect on observed bone (mineral) apposition rate (in words) (male Sprague-Dawley rats [1]; about 25 nmol, rats): stimulate bone growth; also recorded: increase the observed bone apposition rate

Molecule: NAP-2V-(10-26) (CMCIKTTSGIHPKNIQS; OTHER INFORMATION: Description of Artificial Sequence: Chemically synthesized polypeptide) [SEQ ID NO: 13, Cys Met Cys Ile Lys Thr Thr Ser Gly Ile His Pro Lys Asn Ile Gln Ser]
- Group arithmetic mean of bone apposition rate (male Sprague-Dawley rats [1]): 1.18 μm per day
- Effect on observed bone (mineral) apposition rate (in words) (male Sprague-Dawley rats [1]; about 25 nmol, rats): small increase

Molecule: NAP-2V-(11-26) (MCIKTTSQIHPKNIQS; OTHER INFORMATION: Description of Artificial Sequence: Chemically synthesized polypeptide) [SEQ ID NO: 14, Met Cys Ile Lys Thr Thr Ser Gln Ile His Pro Lys Asn Ile Gln Ser]
- Group arithmetic mean of bone apposition rate (male Sprague-Dawley rats [1]): 1.07 μm per day
- Effect on observed bone (mineral) apposition rate (in words) (male Sprague-Dawley rats [1]; about 25 nmol, rats, listed as 14): do not appear to enhance bone growth
- Effect on observed bone (mineral) apposition rate (in words) (male Sprague-Dawley rats [1]; about 25 nmol, rats, listed as NAP-2V-(11-26)): no effect

Molecule: NAP-2V-(12-26) (CIKTTSGIHPKNIQS; OTHER INFORMATION: Description of Artificial Sequence: Chemically synthesized polypeptide) [SEQ ID NO: 15, Cys Ile Lys Thr Thr Ser Gly Ile His Pro Lys Asn Ile Gln Ser]
- Group arithmetic mean of bone apposition rate (male Sprague-Dawley rats [1]): 1.04 μm per day
- Effect on observed bone (mineral) apposition rate (in words) (male Sprague-Dawley rats [1]; about 25 nmol, rats, listed as 15): do not appear to enhance bone growth
- Effect on observed bone (mineral) apposition rate (in words) (male Sprague-Dawley rats [1]; about 25 nmol, rats, listed as NAP-2V-(12-26)): no effect

Molecule: NAP-2V-(13-26; gln^25→ glu^25) (IKTTSGIHPKNIES; OTHER INFORMATION: Description of Artificial Sequence: Chemically synthesized polypeptide) [SEQ ID NO: 12, Ile Lys Thr Thr Ser Gly Ile His Pro Lys Asn Ile Glu Ser]
- Group arithmetic mean of bone apposition rate (male Sprague-Dawley rats [1]): 1.70 μm per day
- Effect on observed bone (mineral) apposition rate (in words) (male Sprague-Dawley rats [1]; about 25 nmol, rats; gln^25→glu^25)): stimulate bone growth; also recorded: greater activity; also recorded: increase the observed bone apposition rate

Molecule: SEQ ID NO: 17: Protected NAP-2V-(13-26; gln^25→glu^25): Xaa Lys Thr Thr Ser Gly Ile His Pro Lys Asn Ile Glu Xaa; N-acetyl isoleucine, serinamide (Ac-IKTTSGIHPKNIES-NH2; also: protecting groups)
- Group arithmetic mean of bone apposition rate [2]: 1.859 μm/d
- Bone stimulatory activity (in words) [2]: bond stimulatory activity

Molecule: SEQ ID NO: 18: Protected NAP-2V-(15-22): Xaa Thr Ser Gly Ile His Pro Xaa; Xaa1 N-acetyl threonine, Xaa8 lysinamide (Ac-TTSGIHPK-NH2; also: protecting groups)
- Bone apposition rate, mean ([3]; 25 nmol): 1.686 μm/day
- Bone apposition rate, mean ([3]; 50 nmol): 1.753 μm/day
- Bone apposition rate, mean ([3]; 100 nmol): 1.907 μm/day
- Bone apposition rate, mean ([3]; 200 nmol): 2.209 μm/day
- Bone apposition rate, mean ([3]; 400 nmol): 2.123 μm/day
- Bone apposition rate, mean ([3]; 800 nmol): 2.139 μm/day
- Group arithmetic mean of bone apposition rate [2]: 2.406 μm/d
- Bone stimulatory activity (in words) [2]: greater bone stimulatory activity; also recorded: bond stimulatory activity

B1: Platelet factor 4 (protein)
chain: EAEEDGDLQCLCVKTTSQVRPRHITSLEVIKAQPHCPTAQLIATLKNGRKICLDLEAPLYKKIIKKLLES
modifications: OTHER INFORMATION: Description of Artificial Sequence: Chemically synthesized polypeptide
notes: seventy amino acid polypeptide
- Effect on cell proliferation (in words) (Saos-2): inhibit proliferation
- Effect on cell proliferation (in words) (G-292): inhibit proliferation

B2: NAP-2 (peptide)
chain: AELRCMCIKTTSGIHPKNIQSLEVIGKGTHCNQVEVIATLKDGRKICLDPDAPRIKKIVQKKLAGDESAD
modifications: OTHER INFORMATION: Description of Artificial Sequence: Chemically synthesized polypeptide
- Bone stimulatory effect (in words) (male Sprague-Dawley rats [4]): bone stimulatory effects
- Bone stimulatory effect (in words) (male Sprague-Dawley rats [4]; listed as SEQ ID NO:1): stimulate bone growth
- Group arithmetic mean of bone apposition rate (male Sprague-Dawley rats [4]): 1.23 μm/d

B3: NAP-2V (peptide)
chain: DSDLYAELRCMCIKTTSGIHPKNIQSLEVIGKGTHCNQVEVIATLKDGRKICLDPDAPRIKKIVQKKLAGDESAD
modifications: OTHER INFORMATION: Description of Artificial Sequence: Chemically synthesized polypeptide
notes: variant of NAP-2, 75 amino acids, chemically synthesized polypeptide
- Bone stimulatory effect (in words) (male Sprague-Dawley rats [4]): bone stimulatory effects
- Bone stimulatory effect (in words) (male Sprague-Dawley rats [4]; listed as SEQ ID NO:2): stimulate bone growth
- Group arithmetic mean of bone apposition rate (male Sprague-Dawley rats [4]): 1.28 μm/d

— US6693081B2, “Bone stimulating factor” (Osteopharm Inc., priority 1995, dated 2004)
